Assay results from patent publication US7556938B1, “Nucleic acids encoding potassium channel interactors” (Millennium Pharmaceuticals, Inc., priority 1998, dated 2009).

Tests used:
Kv4.3/KChIP1 = biological target: T1, Kv4.3/KChIP1 (Rattus norvegicus, UniProt Q62897); assay: Fatty acid modulation of Kv4.3/KChIP1 current in Xenopus oocytes; type: cell-based
T1 sequence (Q62897 1-655): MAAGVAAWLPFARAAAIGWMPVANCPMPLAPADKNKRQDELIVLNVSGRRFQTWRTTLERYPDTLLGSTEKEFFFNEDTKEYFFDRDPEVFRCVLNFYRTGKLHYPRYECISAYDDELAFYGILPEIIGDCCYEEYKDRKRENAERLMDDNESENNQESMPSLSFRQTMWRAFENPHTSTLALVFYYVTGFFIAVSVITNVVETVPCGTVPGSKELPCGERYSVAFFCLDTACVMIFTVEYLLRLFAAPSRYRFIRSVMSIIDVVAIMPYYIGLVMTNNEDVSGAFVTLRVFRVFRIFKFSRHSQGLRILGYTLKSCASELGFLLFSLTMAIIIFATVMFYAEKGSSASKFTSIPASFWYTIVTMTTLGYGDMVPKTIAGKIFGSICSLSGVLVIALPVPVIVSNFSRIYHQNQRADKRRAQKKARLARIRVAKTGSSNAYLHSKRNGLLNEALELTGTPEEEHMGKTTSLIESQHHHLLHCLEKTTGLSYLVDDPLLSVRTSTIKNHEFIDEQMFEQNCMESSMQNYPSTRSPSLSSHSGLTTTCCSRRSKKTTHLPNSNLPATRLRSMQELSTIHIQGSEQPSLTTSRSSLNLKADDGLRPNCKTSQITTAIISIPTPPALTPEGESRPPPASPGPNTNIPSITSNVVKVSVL
T1 sequence (Q8R426 1-216 isoform Q8R426-2 partner): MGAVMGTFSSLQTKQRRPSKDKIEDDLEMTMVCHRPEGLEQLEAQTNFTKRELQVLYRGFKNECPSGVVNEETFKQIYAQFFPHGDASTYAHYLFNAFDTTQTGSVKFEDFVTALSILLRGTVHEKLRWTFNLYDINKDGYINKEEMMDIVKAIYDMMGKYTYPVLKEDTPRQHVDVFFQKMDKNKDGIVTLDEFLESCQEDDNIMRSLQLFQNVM
Experimental: Frogs underwent no more than two surgeries and surgeries were performed by well established techniques. Frogs were anesthetized with ice. Total cRNA (1-10 ng) was injected into stage IV Xenopus oocytes that were harvested the previous day. The Xenopus oocytes were incubated in ND96 containing (in mM) 96 NaCl, 2 KCl, 1.8 CaCl2, 1 MgCl2, 5 HEPES, pH 7.6, plus (Gentamycin 50 μg/ml) at 18° C. Xenopus oocytes were studied 3-7 days after injection. The two-electrode voltage-clamp recordings were performed in ND96 solution using a TURBO TEC 03 Clamp Amplifier (ALA Scientific Instruments, Westbury, N.Y.). Both electrodes were filled with 3 M KCl and had electrode resistances ranging from 0.2-1 MOhm. The current signals were filtered at 1000 Hz before transferred on a PC (Gateway, Calif.) using the PULSE software (HEKA, Germany). In this Example, the hypothesis that […] were the missing auxiliary subunits that accounted for the above kinetic discrepancy was investigated by expressing Kv4 alone or together with […] in both CHO cells and Xenopus oocytes, and measuring their inactivation time constants (using art known techniques as described in, for example, An et al. (2000) Nature 403:553-6; Keros, S. and […]. Neuroscience 17: 3476-87; and Villarroel, A. and […]. Neuroscience 16:2522-32). The effects of different concentrations of arachidonic acid on Kv4/KChIP current was studied in Xenopus oocytes. Because the physiological concentrations of arachidonic acid are often under 10 μM (Needleman, et al., 1986 Annu Rev Biochem 55:69-102; Anderson and Welsh, 1990, Proc Natl Acad Sci USA 87:7334-8; Meves, 1994, Prog Neurobiol 43:175-86), arachidonic acid was tested in the 1-10 μM range. […] Further, the slope of amplitude reduction as a function of increasing concentrations was very similar with or without the presence of […]. […] Villarroel and Schwarz, (1996) J.

[1] = biological target: T2, interaction between N-terminal domain of Kv4.3 and KChIP1 (Rattus norvegicus, UniProt Q62897+Q8R426); assay: Biosensor (Biacore) in vitro binding of KChIP1 to GST-Kv4.3N with and without arachidonic acid; settings: 10 μM arachidonic acid, 1 μM KChIP1
T2 construct: The intracellular N-terminal domain of Kv4.3 was expressed as a GST fusion protein (GST-Kv4.3N); GST (N, cleaved yes); made in house; host or cells: E. coli
T2 sequence (Q62897 1-182 limits assumed): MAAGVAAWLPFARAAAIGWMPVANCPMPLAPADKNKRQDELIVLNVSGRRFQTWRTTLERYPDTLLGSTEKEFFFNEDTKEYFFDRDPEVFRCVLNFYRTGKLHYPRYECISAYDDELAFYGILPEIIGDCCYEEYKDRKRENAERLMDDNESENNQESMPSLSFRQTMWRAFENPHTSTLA
T2 sequence (Q8R426 1-216 isoform Q8R426-2): T1 sequence (Q8R426 1-216 isoform Q8R426-2 partner)
From the text: The N-terminal domain of rat Kv4.3 was expressed as a GST fusion (GST-Kv4.3N) and purified from E. coli essentially following protocols provided by Amersham Pharmacia Biotech (Piscataway, N.J.). Recombinant rat KChIP1 protein was first expressed and purified as a GST-fusion, then the GST moiety was cleaved using PreScission protease (Amersham Pharmacia Biotech) to give rise to the free KChIP1 protein. Both GST-Kv4.3N and KChIP proteins were >95% pure as estimated by coomassie stain of denaturing gels. In vitro binding assays were performed using a Biacore 3000 from Biacore AB in Uppsala, Sweden. The experiments were performed in phosphate buffered saline (PBS), pH 7.4, with 1 mM CaCl2 and 0.05% polysorbate P-20. Anti-GST antibody (Biacore AB) was coupled to 3 flowcells of a CM-5 chip (Biacore AB) at a level of 2000 resonance units (RUs) using amine coupling. […]
To test the hypothesis that arachidonic acid acts by interfering with the binding between Kv4 and KChIPs, the surface plasmon resonance measurement (Biosensor) was first used to monitor the association and dissociation phases of Kv4-KChIP interaction in the presence and absence of arachidonic acid. The intracellular N-terminal domain of Kv4.3 was expressed as a GST fusion protein (GST-Kv4.3N) and immobilized to the surface of a Biosensor chip. […]

[2] = Kv4.3/KChIP1, 10 μM AA, listed as AA

Compound: CCCCC/C=C\C/C=C\C/C=C\C/C=C\CCCC(=O)O [arachidonic acid]
- Inactivation time constant (ms ± SEM) (Kv4.3/KChIP1; [2]): 55 ± 4 ms
- Peak amplitude (μA ± SEM) (Kv4.3/KChIP1; [2]): 21±4 μA
- block of Kv4.3 peak amplitude (Kv4.3/KChIP1; Kv4.3/KChIP1, 10 μM fatty acid, vs no-fatty acid control): inhibited significantly
- block of Kv4.3 peak amplitude (Kv4.3/KChIP1; Kv4.3/KChIP1, 1-10 μM arachidonic acid): concentration-dependent block
- effect on Kv4.3 inactivation time constant (Kv4.3/KChIP1; Kv4.3 co-expressed with KChIP1, 10 μM fatty acid): reduced Kv4.3 inactivation time constant
- effect on inactivation time constant (Kv4.3/KChIP1; presence of KChIP1, 1-10 μM arachidonic acid): decreased in a concentration-dependent manner
- effect on association and dissociation phase of KChIP1 binding to GST-Kv4.3N [1]: a qualitative difference aws not observed
